Laboratory results published in patent US10160771B2, “Hepatitis C virus inhibitors and uses thereof in preparation of drugs” (priority 2014, dated 2018).

Tests used:
[1] = system: HCV genotype 1a (HCV-1a) replicon cells; test: HCV genotype 1a replicon luciferase assay (EC50); format: cell-based, hepatitis C virus genotype 1a (H77 clone); settings: 3 days, luciferase (Bright-Glo)
In short: (§1)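 H77-derived 1a (K1691R, K2040R, S2204I) or Con1-derived 1b (E1202G, T1280I, K1846T) luciferase replicon cells, 8000/well, exposed 3 days at 37° C. to 6-point 5-fold dilutions (top 100, 10 or 1 nM; 0.5% DMSO), in duplicate. Bright-Glo luminescence read; EC50 from nonlinear fit of % inhibition.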

[2] = Cell Titer-fluor cell activity assay in HCV-1b replicon cells (CC50); format: cell-based
In short: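 Con1 genotype 1b replicon cells (E1202G, T1280I, K1846T adaptive mutations), 8000 cells/well, exposed to 6-point 5-fold dilutions from 100, 10 or 1 nM top concentration in 0.5% DMSO, duplicate wells, 3 days at 37 °C. Viability read by Cell Titer-fluor (Ex 405/Em 515 nm) after 30 min; CC50 from nonlinear fit of inhibition %.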

[3] = system: HCV genotype 1b (HCV-1b) replicon cells; test: HCV genotype 1b replicon luciferase assay (EC50); format: cell-based, hepatitis C virus genotype 1b (Con1 clone); settings: Hepatitis C virus, 72 h, 3 days, luciferase (Bright-Glo)
In short: as §1

Structure (SMILES)	EC50 ([1]; Hepatitis C virus, 72 h)	CC50 at 3 days [2]	EC50 [3]	EC50 [1]
COC(=O)N[C@H](C(=O)N1CCC[C@H]1c1ncc(-c2ccc(-c3ccc(-c4cnc(C5C6CCC(C6)[C@@H]5C(=O)NCc5cccnc5O)[nH]4)cc3)cc2)[nH]1)[C@@H](C)OC (stereo partly drawn) [AA_263_B]	1 to 10 nM	> 1 nM	0.101 to 1 nM	
COC(=O)N[C@H](C(=O)N1CCC[C@H]1c1ncc(-c2ccc(-c3ccc(-c4cnc(C5C6CCC(C6)[C@H]5C(=O)NCc5cccnc5O)[nH]4)cc3)cc2)[nH]1)[C@@H](C)OC (stereo partly drawn) [AA_263_C]	10 to 100 nM	> 1 nM	0.101 to 1 nM	
COC(=O)N[C@H](C(=O)N1CCC[C@H]1c1ncc(-c2ccc(-c3ccc(-c4cnc(C5C6CCC(C6)[C@@H]5C(=O)NCc5ccc(C(F)(F)F)nc5)[nH]4)cc3)cc2)[nH]1)[C@@H](C)OC (stereo partly drawn) [AA_264_A]	1 to 10 nM	> 1 nM	0.101 to 1 nM	
COC(=O)N[C@H](C(=O)N1CCC[C@H]1c1ncc(-c2ccc(-c3ccc(-c4cnc(C5C6CCC(C6)[C@H]5C(=O)NCc5ccc(C(F)(F)F)nc5)[nH]4)cc3)cc2)[nH]1)[C@@H](C)OC (stereo partly drawn) [AA_264_B]	10 to 100 nM	> 1 nM	0.101 to 1 nM	
COC(=O)N[C@H](C(=O)N1CCC[C@H]1c1ncc(-c2ccc(-c3ccc(-c4cnc(C5C6CCC(C6)[C@@H]5C(=O)NCc5ccc(C(C)C)nc5)[nH]4)cc3)cc2)[nH]1)[C@@H](C)OC (stereo partly drawn) [AA_265_A]	10 to 100 nM	> 1 nM	0.101 to 1 nM	
COC(=O)N[C@H](C(=O)N1CCC[C@H]1c1ncc(-c2ccc(-c3ccc(-c4cnc(C5C6CCC(C6)[C@H]5C(=O)NCc5ccc(C(C)C)nc5)[nH]4)cc3)cc2)[nH]1)[C@@H](C)OC (stereo partly drawn) [AA_265_B]	10 to 100 nM	> 1 nM	0.101 to 1 nM	
COC(=O)N[C@H](C(=O)N1CCC[C@H]1c1ncc(-c2ccc(-c3ccc(-c4cnc(C5C6CCC(C6)[C@@H]5C(=O)NCCc5ccncc5)[nH]4)cc3)cc2)[nH]1)[C@@H](C)OC (stereo partly drawn) [AA_266_A]	1 to 10 nM	> 1 nM	0.101 to 1 nM	
COC(=O)N[C@H](C(=O)N1CCC[C@H]1c1ncc(-c2ccc(-c3ccc(-c4cnc(C5C6CCC(C6)[C@H]5C(=O)NCCc5ccncc5)[nH]4)cc3)cc2)[nH]1)[C@@H](C)OC (stereo partly drawn) [AA_266_B]	10 to 100 nM	> 1 nM	0.101 to 1 nM	
COC(=O)N[C@H](C(=O)N1CCC[C@H]1c1ncc(-c2ccc(-c3ccc(-c4cnc(C5C6CCC(C6)[C@@H]5C(=O)N[C@H](c5cccnc5)C(C)C)[nH]4)cc3)cc2)[nH]1)[C@@H](C)OC (stereo partly drawn) [AA_267_A]	0.101 to 1 nM	> 1 nM	0.001 to 0.1 nM	
COC(=O)N[C@H](C(=O)N1CCC[C@H]1c1ncc(-c2ccc(-c3ccc(-c4cnc(C5C6CCC(C6)[C@H]5C(=O)N[C@H](c5cccnc5)C(C)C)[nH]4)cc3)cc2)[nH]1)[C@@H](C)OC (stereo partly drawn) [AA_267_B]		> 1 nM	0.101 to 1 nM	1 to 10 nM
COC(=O)N[C@H](C(=O)N1CCC[C@H]1c1ncc(-c2ccc(-c3ccc(-c4cnc(C5C6CCC(C6)[C@@H]5C(=O)NCc5cnccn5)[nH]4)cc3)cc2)[nH]1)[C@@H](C)OC (stereo partly drawn) [AA_268_A]	0.101 to 1 nM	> 1 nM	0.001 to 0.1 nM	
COC(=O)N[C@H](C(=O)N1CCC[C@H]1c1ncc(-c2ccc(-c3ccc(-c4cnc(C5C6CCC(C6)[C@H]5C(=O)NCc5cnccn5)[nH]4)cc3)cc2)[nH]1)[C@@H](C)OC (stereo partly drawn) [AA_268_B]	1 to 10 nM	> 1 nM	0.001 to 0.1 nM	
COC(=O)N[C@H](C(=O)N1CCC[C@H]1c1ncc(-c2ccc(-c3ccc(-c4cnc([C@@H]5[C@H]6CC[C@H](C6)[C@H]5C(=O)N[C@@H](C)c5cnccn5)[nH]4)cc3)cc2)[nH]1)C(C)C [AA_270_ENDOA2_A]	0.001 to 0.1 nM	> 1 nM	0.001 to 0.1 nM	
COC(=O)N[C@H](C(=O)N1CCC[C@H]1c1ncc(-c2ccc(-c3ccc(-c4cnc([C@@H]5[C@H]6CC[C@H](C6)[C@H]5C(=O)N[C@H](C)c5cnccn5)[nH]4)cc3)cc2)[nH]1)C(C)C [AA_270_ENDOA2_B]	1 to 10 nM	> 1 nM	0.001 to 0.1 nM	
COC(=O)N[C@H](C(=O)N1CCC[C@H]1c1ncc(-c2ccc(-c3ccc(-c4cnc([C@@H]5[C@H]6CC[C@H](C6)[C@H]5C(=O)NC5(c6ccccc6)CC5)[nH]4)cc3)cc2)[nH]1)C(C)C [AA_273_ENDOA2]	1 to 10 nM	> 1 nM	0.001 to 0.1 nM	
COC(=O)N[C@H](C(=O)N1CCCC1c1ncc(-c2ccc(-c3ccc(-c4cnc([C@@H]5C6CCC(C6)C5C(=O)NCc5cccnc5)[nH]4)cc3)c(F)c2)[nH]1)[C@@H](C)OC (stereo partly drawn) [AA_280_A]	1 to 10 nM	> 1 nM	0.001 to 0.1 nM	
COC(=O)N[C@H](C(=O)N1CCCC1c1ncc(-c2ccc(-c3ccc(-c4cnc([C@H]5C6CCC(C6)C5C(=O)NCc5cccnc5)[nH]4)cc3)c(F)c2)[nH]1)[C@@H](C)OC (stereo partly drawn) [AA_280_B]	0.101 to 1 nM	> 1 nM	0.001 to 0.1 nM	
COC(=O)N[C@H](C(=O)N1CCC[C@H]1c1ncc(-c2ccc(-c3ccc(-c4cnc(C5C6CCC(C6)[C@H]5C(=O)NC(C)c5cnccn5)[nH]4)cc3)cc2)[nH]1)[C@@H](C)OC (stereo partly drawn) [AA_281_B]	0.101 to 1 nM	> 1 nM	0.001 to 0.1 nM	
CNC(=O)[C@@H](NC(=O)[C@@H]1[C@@H]2CC[C@@H](C2)[C@H]1c1ncc(-c2ccc(-c3ccc(-c4cnc([C@@H]5CCCN5C(=O)[C@@H](NC(=O)OC)C(C)C)[nH]4)cc3)cc2)[nH]1)C(C)C [AA_298_ENDOA2]	1 to 10 nM	> 1 nM	0.001 to 0.1 nM	
COC(=O)N[C@H](C(=O)N1CCC[C@H]1c1ncc(-c2ccc(-c3ccc(-c4cnc([C@@H]5[C@H]6CC[C@H](C6)[C@H]5C(=O)NN(C(=O)OC)C(C)C)[nH]4)cc3)cc2)[nH]1)C(C)C [AA_299_ENDOA2]	10 to 100 nM	> 1 nM	0.001 to 0.1 nM	
COC(=O)N[C@H](C(=O)N1CCC[C@H]1c1ncc(-c2ccc(-c3ccc(-c4cnc([C@@H]5[C@H]6CC[C@H](C6)[C@H]5C(=O)NN(C(C)=O)C(C)C)[nH]4)cc3)cc2)[nH]1)C(C)C [AA_300_ENDOA2]	10 to 100 nM	> 1 nM	0.101 to 1 nM	
CCOC(=O)CNC(=O)[C@@H](NC(=O)[C@@H]1[C@@H]2CC[C@@H](C2)[C@H]1c1ncc(-c2ccc(-c3ccc(-c4cnc([C@@H]5CCCN5C(=O)[C@@H](NC(=O)OC)C(C)C)[nH]4)cc3)cc2)[nH]1)C(C)C [AA_301_ENDOA2]	10 to 100 nM	> 1 nM	0.101 to 1 nM	
COC(=O)N[C@H](C(=O)N1CCCC1c1ccc(-c2ccc(-c3ccc(-c4ccc(C5CCCN5C(=O)[C@@H](NC(=O)OC)C(C)C)[nH]4)cc3)cc2)[nH]1)C(C)C (stereo partly drawn) [AG_011]	10 to 100 nM	> 1 nM	0.001 to 0.1 nM	
COC(=O)N[C@H](C(=O)N1CCCC1c1ncc(-c2ccc(-c3ccc(-c4[nH]c(C5CCCN5C(=O)[C@@H](NC(=O)OC)C(C)C)c5c4CCCC5)cc3)cc2)[nH]1)C(C)C (stereo partly drawn) [AG_014]	10 to 100 nM	> 10 nM	0.101 to 1 nM	
COC(=O)N[C@H](C(=O)N1CCCC1c1ncc(-c2ccc(-c3ccc(-c4[nH]c([C@@H]5CCCN5C(=O)[C@@H](NC(=O)OC)C(C)C)c5c4CCC5)cc3)cc2)[nH]1)C(C)C (stereo partly drawn) [AG_014_A]	1 to 10 nM	> 10 nM	0.001 to 0.1 nM	
COC(=O)N[C@H](C(=O)N1CCC[C@H]1c1ncc(-c2ccc(-c3ccc(-c4[nH]c([C@@H]5CCCN5C(=O)[C@@H](NC(=O)OC)C(C)C)c5c4CCCC5)cc3)cc2)[nH]1)C(C)C [AG_015_A]	10 to 100 nM	> 1 nM	0.001 to 0.1 nM	
COC(=O)N[C@H](C(=O)N1CCCC1c1ccc(-c2ccc(-c3ccc(-c4cnc([C@@H]5COC(C)(C)N5C(=O)[C@@H](NC(=O)OC)C(C)C)[nH]4)cc3)cc2)[nH]1)C(C)C (stereo partly drawn) [AG_022]	10 to 100 nM	> 10 nM	0.101 to 1 nM	
COC(=O)N[C@H](C(=O)N1CCC[C@H]1c1[nH]c(-c2ccc(-c3ccc(-c4[nH]c([C@@H]5CCCN5C(=O)[C@@H](NC(=O)OC)C(C)C)c5c4CCC5)cc3)cc2)c2c1CCC2)C(C)C [AG_026_A]	10 to 100 nM	> 10 nM	0.101 to 1 nM	
